Source: patent US9586936B2, “Heteroarylamine derivatives as protein kinase inhibitors” (KOREA INSTITUTE OF SCIENCE AND TECHNOLOGY, priority 2014, dated 2017)

Tests used:
[1] = system: bladder cancer cell line RT112; assay: inhibition of proliferation of cancer cells; assay type: cell-based; details: Homo sapiens, RT-112, read-out: Ability of inhibiting proliferation of RT112 (GI50)
Method: The ability of the compound of the present invention of inhibiting the proliferation of the bladder cancer cell line RT112 was determined as the GI50 value.

[2] = system: RT112 bladder cancer cell line; details: literature statement; cited from earlier work
[3] = molecular target: FGFR3 (Homo sapiens, UniProt P22607); details: literature statement; cited from earlier work
[4] = microsomal stability; assay type: in vitro ADME, Rat; details: Rat
Method: (§1) The microsomal stability of N-(2,6-dichloro-3,5-dimethoxyphenyl)-1-(6-((4-(4-ethylpiperazin-1-yl)phenyl)amino)pyrimidin-4-yl)-1H-benz[d]imidazol-2-amine synthesized in Example 1, as a representative compound of the present invention, was evaluated.

[5] = microsomal stability; assay type: in vitro ADME, Mouse; details: Mouse
Method: as §1

[6] = microsomal stability; assay type: in vitro ADME, Dog; details: Dog
Method: as §1

[7] = microsomal stability; assay type: in vitro ADME, Human; details: Human
Method: as §1

FGFR3, sequence (P22607 23-806): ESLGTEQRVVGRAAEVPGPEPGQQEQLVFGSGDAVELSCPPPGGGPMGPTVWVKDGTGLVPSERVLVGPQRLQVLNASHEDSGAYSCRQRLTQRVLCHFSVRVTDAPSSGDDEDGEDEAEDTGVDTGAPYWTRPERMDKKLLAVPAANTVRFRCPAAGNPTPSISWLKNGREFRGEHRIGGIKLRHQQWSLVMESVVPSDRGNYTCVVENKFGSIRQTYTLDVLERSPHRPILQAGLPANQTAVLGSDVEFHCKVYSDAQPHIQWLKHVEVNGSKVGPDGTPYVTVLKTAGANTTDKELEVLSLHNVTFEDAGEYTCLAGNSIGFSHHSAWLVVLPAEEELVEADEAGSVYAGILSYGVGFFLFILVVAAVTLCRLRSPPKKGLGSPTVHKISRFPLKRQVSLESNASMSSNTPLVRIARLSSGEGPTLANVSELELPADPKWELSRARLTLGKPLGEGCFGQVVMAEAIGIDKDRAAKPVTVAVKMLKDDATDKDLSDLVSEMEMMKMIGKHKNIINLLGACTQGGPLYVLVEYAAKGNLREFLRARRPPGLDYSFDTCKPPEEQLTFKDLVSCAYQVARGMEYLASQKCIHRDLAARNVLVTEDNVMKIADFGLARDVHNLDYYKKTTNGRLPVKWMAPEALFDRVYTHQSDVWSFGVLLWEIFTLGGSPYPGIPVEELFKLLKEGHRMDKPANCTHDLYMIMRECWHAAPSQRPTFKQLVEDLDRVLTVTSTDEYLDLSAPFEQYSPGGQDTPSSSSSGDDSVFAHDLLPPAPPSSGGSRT

COc1cc(N2CCN(C)CC2)ccc1Nc1cc(-n2c(Nc3c(Cl)c(OC)cc(OC)c3Cl)nc3ccccc32)ncn1 [Example 2, N-(2,6-dichloro-3,5-dimethoxyphenyl)-1-(6-((2-methoxy-4-(4-methylpiperazin-1-yl)phenyl)amino)pyrimidin-4-yl)-1H-benz[d]imidazol-2-amine]
GI50 [1]: < 1000 nM

COc1cc(OC)c(Cl)c(Nc2nc3ccccc3n2-c2cc(Nc3ccc(N4CCOCC4)cc3)ncn2)c1Cl [Example 3, N-(2,6-dichloro-3,5-dimethoxyphenyl)-1-(6-((4-morpholinophenyl)amino)pyrimidin-4-yl)-1H-benz[d]imidazol-2-amine]
GI50 [1]: < 1000 nM

COc1cc(N2CCOCC2)ccc1Nc1cc(-n2c(Nc3c(Cl)c(OC)cc(OC)c3Cl)nc3ccccc32)ncn1 [Example 4, N-(2,6-dichloro-3,5-dimethoxyphenyl)-1-(6-((2-methoxy-4-morpholinophenyl)amino)pyrimidin-4-yl)-1H-benz[d]imidazol-2-amine]
GI50 [1]: < 1000 nM

COc1cc(OC)c(Cl)c(Nc2nc3ccccc3n2-c2cc(Nc3ccc(N4CCC(N5CCCCC5)CC4)c(C(F)(F)F)c3)ncn2)c1Cl [Example 5, 1-(6-((4-([1,4′-bipiperidin]-1′-yl)-3-(trifluoromethyl)phenyl)amino)pyrimidin-4-yl)-N-(2,6-dichloro-3,5-dimethoxyphenyl)-1H-benz[d]imidazol-2-amine]
GI50 [1]: < 10000 nM

COc1cc(OC)c(Cl)c(Nc2nc3ccccc3n2-c2cc(Nc3ccc(CN4CCN(CC5CCCCC5)CC4)cc3)ncn2)c1Cl [Example 6, 1-(6-((4-((4-(cyclohexylmethyl)piperazin-1-yl)methyl)phenyl)amino)pyrimidin-4-yl)-N-(2,6-dichloro-3,5-dimethoxyphenyl)-1H-benz[d]imidazol-2-amine]
GI50 [1]: < 10000 nM

COc1cc(OC)c(Cl)c(Nc2nc3ccccc3n2-c2cc(N)ncn2)c1Cl [Example 8]
GI50 [1]: < 1000 nM

CNc1cc(-n2c(Nc3c(Cl)c(OC)cc(OC)c3Cl)nc3ccccc32)ncn1 [Example 9, N-(2,6-dichloro-3,5-dimethoxyphenyl)-1-(6-(methylamino)pyrimidin-4-yl)-1H-benz[d]imidazol-2-amine]
GI50 [1]: < 1000 nM

COc1cc(OC)c(Cl)c(Nc2nc3ccccc3n2-c2cc(Nc3ccccc3)ncn2)c1Cl [Example 10, N-(2,6-dichloro-3,5-dimethoxyphenyl)-1-(6-(phenylamino)pyrimidin-4-yl)-1H-benz[d]imidazol-2-amine]
GI50 [1]: < 1000 nM

COc1cc(OC)c(Cl)c(Nc2nc3ccccc3n2-c2cc(Nc3ncccn3)ncn2)c1Cl [Example 11, N-(2,6-dichloro-3,5-dimethoxyphenyl)-1-(6-(pyrimidin-2-ylamino)pyrimidin-4-yl)-1H-benz[d]imidazol-2-amine]
GI50 [1]: < 1000 nM

CCN1CCN(c2ccc(Nc3cc(N(C)C(=O)Nc4c(Cl)c(OC)cc(OC)c4Cl)ncn3)cc2)CC1 [NVP-BGJ398, 3-(2,6-dichloro-3,5-dimethoxyphenyl)-1-{6-[4-(4-ethyl-piperazin-1-yl)phenylamino]pyrimidin-4-yl}-1-methylurea]
anticancer activity for the RT112 bladder cancer cell line, in words [2]: effective anticancer activity | inhibition activity against FGFR3, in words [3]: selective inhibition activity

Cc1ncc2n1-c1ccc(Cl)cc1C(c1ccccc1F)=NC2 [midazolam, reference compound]
microsomal stability (% at time) ([4]; 0 min): 100.00% | microsomal stability (% at time) ([4]; 5 min): 13.65% | microsomal stability (% at time) ([4]; 10 min): 1.01% | microsomal stability (% at time) ([4]; 15 min): 0.14% | microsomal stability (% at time) ([4]; 30 min): 0.04% | microsomal stability (% at time) ([5]; 0 min): 100.00% | microsomal stability (% at time) ([5]; 5 min): 10.42% | microsomal stability (% at time) ([5]; 10 min): 1.13% | microsomal stability (% at time) ([5]; 15 min): 0.18% | microsomal stability (% at time) ([5]; 30 min): 0.05% | microsomal stability (% at time) ([6]; 0 min): 100.00% | microsomal stability (% at time) ([6]; 5 min): 6.23% | microsomal stability (% at time) ([6]; 10 min): 0.59% | microsomal stability (% at time) ([6]; 15 min): 0.27% | microsomal stability (% at time) ([6]; 30 min): 0.10% | microsomal stability (% at time) ([7]; 0 min): 100.00% | microsomal stability (% at time) ([7]; 5 min): 38.75% | microsomal stability (% at time) ([7]; 10 min): 12.92% | microsomal stability (% at time) ([7]; 15 min): 5.60% | microsomal stability (% at time) ([7]; 30 min): 0.73%
